Assay results from patent publication US20260091020A1, “TREATMENT OF ACUTE CANNABINOID OVERDOSE” (Anebulo Pharmaceuticals, Inc., priority 2022, published 2026).
Read-outs that look alike come from different tables or passages of the source.

Assay: Plasma PK of ANEB-001 and THC, 50 and 100 mg oral Compound 1 with THC (Example 2)
Assay type: in vivo, human
Settings: for concentration at 0 h / concentration at 0.33 h / concentration at 0.67 h / concentration at 1 h / concentration at 2 h / concentration at 3 h / concentration at 4 h / concentration at 5 h / concentration at 24 h / AUC(0-t) / Cmax / Tmax: human, in vivo; for Tmax: read-out: THC plasma tmax, Median
Description: A phase 2 clinical study was conducted using the design outlined in FIG. 1. Briefly, 60 adult healthy volunteers ages 18-45 (20 per arm) were selected for a randomized, double blind placebo-controlled study. Volunteers were divided into three groups: (1) THC (Δ9-Tetrahydrocannabinol, 10.5 mg)+placebo; (2) THC (10.5 mg)+Compound 1 (50 mg); and (3) THC (10.5 mg)+Compound 1 (100 mg). […] A followup evaluation was also performed after 14 days. Primary endpoints included inhibition of central nervous system effects of THC using (a) visual analog scale “feeling high”; (b) visual analog scale “alertness”; (c) body sway; (d) heart rate. Secondary endpoints included additional efficacy metrics, safety/tolerability, PK, and PK/PD correlations.
Following the general methods of Example 1, pharmacodynamic properties were measured for Compound 1 (FIGS. 13A-13F).

[1] = 10 mg THC + 50 mg ANEB-001, read-out: THC Concentration in Plasma, Mean
[2] = 10 mg THC + 50 mg ANEB-001, read-out: THC Concentration in Plasma, Median
[3] = 10 mg THC + 100 mg ANEB-001, read-out: THC Concentration in Plasma, Mean
[4] = 10 mg THC + 100 mg ANEB-001, read-out: THC Concentration in Plasma, Median
[5] = 10 mg THC + Placebo, read-out: THC Concentration in Plasma, Mean
[6] = 10 mg THC + Placebo, read-out: THC Concentration in Plasma, Median

## CCCCCc1cc(O)c2c(c1)OC(C)(C)[C@@H]1CCC(C)=C[C@@H]21 [THC, Δ9-tetrahydrocannabinol]
10 mg THC + 50 mg ANEB-001
  THC plasma tlag, Median: 0.00 h
  Tmax: 1 h
10 mg THC + 100 mg ANEB-001
  THC plasma AUClast, Mean: 6.128 ng·h/mL
  THC plasma tlag, Median: 0.00 h
  Tmax: 0.67 h
10 mg THC + Placebo
  THC plasma AUClast, Mean: 5.722 ng·h/mL
  THC plasma Cmax, Median: 2.81 ng/mL
  THC plasma tlag, Median: 0.00 h
  Tmax: 1 h
[1]
  concentration at 0 h: 0 ng/mL
  concentration at 0.33 h: 1.27 ng/mL
  concentration at 0.67 h: 2.9 ng/mL
  concentration at 1 h: 2.76 ng/mL
  concentration at 2 h: 1.4 ng/mL
  concentration at 3 h: 0.721 ng/mL
  concentration at 4 h: 0.432 ng/mL
  concentration at 5 h: 0.287 ng/mL
  concentration at 24 h: 5.55 pg/mL
[2]
  concentration at 0 h: 0 ng/mL
  concentration at 0.33 h: 0.738 ng/mL
  concentration at 0.67 h: 2.41 ng/mL
  concentration at 1 h: 2.6 ng/mL
  concentration at 2 h: 1.18 ng/mL
  concentration at 3 h: 0.689 ng/mL
  concentration at 4 h: 0.379 ng/mL
  concentration at 5 h: 0.264 ng/mL
  concentration at 24 h: 0 pg/mL
10 mg THC + 50 mg ANEB-001, read-out: THC plasma AUClast, Geometric Mean
  AUC(0-t): 5.65 ng·h/mL
10 mg THC + 50 mg ANEB-001, read-out: THC plasma AUClast, Mean
  AUC(0-t): 5.98 ng·h/mL
10 mg THC + 50 mg ANEB-001, read-out: THC plasma AUClast, Median
  AUC(0-t): 5.51 ng·h/mL
10 mg THC + 50 mg ANEB-001, read-out: THC plasma Cmax, Geometric Mean
  Cmax: 3.14 ng/mL
10 mg THC + 50 mg ANEB-001, read-out: THC plasma Cmax, Mean
  Cmax: 3.4 ng/mL
10 mg THC + 50 mg ANEB-001, read-out: THC plasma Cmax, Median
  Cmax: 3.12 ng/mL
[3]
  concentration at 0 h: 0 ng/mL
  concentration at 0.33 h: 1.72 ng/mL
  concentration at 0.67 h: 3.54 ng/mL
  concentration at 1 h: 2.7 ng/mL
  concentration at 2 h: 1.28 ng/mL
  concentration at 3 h: 0.718 ng/mL
  concentration at 4 h: 0.446 ng/mL
  concentration at 5 h: 0.314 ng/mL
  concentration at 24 h: 6 pg/mL
[4]
  concentration at 0 h: 0 ng/mL
  concentration at 0.33 h: 0.986 ng/mL
  concentration at 0.67 h: 2.41 ng/mL
  concentration at 1 h: 1.88 ng/mL
  concentration at 2 h: 1.05 ng/mL
  concentration at 3 h: 0.639 ng/mL
  concentration at 4 h: 0.35 ng/mL
  concentration at 5 h: 0.228 ng/mL
  concentration at 24 h: 0 pg/mL
10 mg THC + 100 mg ANEB-001, read-out: THC plasma AUClast, Geometric Mean
  AUC(0-t): 5.3 ng·h/mL
10 mg THC + 100 mg ANEB-001, read-out: THC plasma AUClast, Median
  AUC(0-t): 4.94 ng·h/mL
10 mg THC + 100 mg ANEB-001, read-out: THC plasma Cmax, Geometric Mean
  Cmax: 3.08 ng/mL
10 mg THC + 100 mg ANEB-001, read-out: THC plasma Cmax, Mean
  Cmax: 3.77 ng/mL
10 mg THC + 100 mg ANEB-001, read-out: THC plasma Cmax, Median
  Cmax: 2.46 ng/mL
[5]
  concentration at 0 h: 0 ng/mL
  concentration at 0.33 h: 1.17 ng/mL
  concentration at 0.67 h: 2.29 ng/mL
  concentration at 1 h: 2.49 ng/mL
  concentration at 2 h: 1.44 ng/mL
  concentration at 3 h: 1.01 ng/mL
  concentration at 4 h: 0.455 ng/mL
  concentration at 5 h: 0.285 ng/mL
  concentration at 24 h: 0 pg/mL
[6]
  concentration at 0 h: 0 ng/mL
  concentration at 0.33 h: 0.776 ng/mL
  concentration at 0.67 h: 1.81 ng/mL
  concentration at 1 h: 2.27 ng/mL
  concentration at 2 h: 1.6 ng/mL
  concentration at 3 h: 0.838 ng/mL
  concentration at 4 h: 0.443 ng/mL
  concentration at 5 h: 0.248 ng/mL
  concentration at 24 h: 0 pg/mL
10 mg THC + Placebo, read-out: THC plasma AUClast, Geometric Mean
  AUC(0-t): 5.16 ng·h/mL
10 mg THC + Placebo, read-out: THC plasma AUClast, Median
  AUC(0-t): 4.96 ng·h/mL
10 mg THC + Placebo, read-out: THC plasma Cmax, Geometric Mean
  Cmax: 2.76 ng/mL
10 mg THC + Placebo, read-out: THC plasma Cmax, Mean
  Cmax: 3.15 ng/mL
